Laboratory results from PMC9917201, “Enhanced Antibacterial Activity of Substituted Derivatives of NCR169C Peptide” (International Journal of Molecular Sciences, 2023).
In brackets after ≈: the same amount, converted by molar mass. Read-outs that look alike come from different tables or passages of the source. Non-standard residues stand in square brackets, D forms with d. Residues, ends and D or L forms follow the SMILES beside them. ξ: configuration not given here. dTrp(5-F) = N[C@H](Cc1c[nH]c2ccc(F)cc12)C(=O)O; ξTrp(7-aza) = NC(Cc1c[nH]c2ncccc12)C(=O)O

Key:
Assay type in all cases: cell-based
[1] = tested on: Klebsiella pneumoniae (NCTC 13440); settings: NCTC 13440, 3 h, pH 7.4
Source text: (§1) The bacterial strains for the antimicrobial assay were obtained from the ATCC (American Type Culture Collection, Manassas, VA, USA) and NCTC (National Collection of Type Cultures, Salisbury, UK). Gram-negative strains were Pseudomonas aeruginosa (ATCC 27853), Escherichia coli (ATCC 8739, ATCC 35218, and ATCC 25922), Salmonella enterica (ATCC 13076), Klebsiella pneumoniae (NCTC 13440), Acinetobacter baumannii (ATCC 17978) and the Gram-positive strains were Enterococcus faecalis (ATCC 29212), Listeria monocytogenes (ATCC 19111), and Staphylococcus aureus (HNCMO112011 and ATCC 25923).
(§2) Determination of antibacterial activity for the peptides was carried out by utilizing a minimum bactericidal concentration (MBC) bioassay. Synthesized peptides were dissolved in sterile water and used from 25 to 0.125 μM in 2-fold dilution series and incubated with ~10^7 log phase bacteria in Potassium-Phosphate Buffer (PPB, pH: 7.4) for three hours as described earlier. After that, 5 μl of each sample was placed on LB agar and the growth of bacteria was monitored after overnight incubation at 37 °C. The lowest concentration of the antimicrobial agents that completely eliminated viable bacteria was considered the minimal bactericidal concentration (MBC).

[2] = tested on: Listeria monocytogenes (ATCC 19111)
Source text: as §1, §2

[3] = tested on: Acinetobacter baumannii (ATCC 17978); settings: ATCC 17978, 3 h, pH 7.4
Source text: as §1, §2

[4] = tested on: Enterococcus faecalis (ATCC 29212)
Source text: as §1, §2

[5] = tested on: Staphylococcus aureus (HNCMO112011); settings: HNCMO112011, 3 h, pH 7.4
Source text: as §1, §2

[6] = tested on: Pseudomonas aeruginosa (ATCC 27853); settings: ATCC 27853, 3 h, pH 7.4
Source text: as §1, §2

[7] = tested on: tested bacteria (ESKAPE pathogens, Listeria monocytogenes, Salmonella enterica)
Source text: as §1, §2

[8] = tested on: Escherichia coli (ATCC 8739); settings: ATCC 8739, 3 h, pH 7.4
Source text: as §1, §2

[9] = tested on: Salmonella enterica (ATCC 13076); settings: ATCC 13076, 3 h, pH 7.4
Source text: as §1, §2

| SMILES | Minimal bactericidal concentration (MBC) K. p. [1] | Minimal bactericidal concentration (MBC) L. m. ([2]; ATCC 19111, 3 h, pH 7.4) | Minimal bactericidal concentration (MBC) A. b. [3] | Minimal bactericidal concentration (MBC) E. f. ([4]; ATCC 29212, 3 h, pH 7.4) | Minimal bactericidal concentration (MBC) S. a. [5] | Minimal bactericidal concentration (MBC) P. a. [6] | MBC against most or all of the tested bacteria ([7]; 3 h, pH 7.4) | Minimal bactericidal concentration (MBC) E. c. [8] | Minimal bactericidal concentration (MBC) S. e. [9] | MBC against most or all of the tested bacteria ([7]; summary over the tested bacterial species, 3 h in PPB pH 7.4) | Minimal bactericidal concentration (MBC) L. m. ([2]; Listeria monocytogenes ATCC 19111, ~10^7 log phase bacteria, 3 h in PPB pH 7.4, peptide 25 to 0.125 μM 2-fold series, plated on LB agar, overnight 37 °C) | Minimal bactericidal concentration (MBC) E. f. ([4]; Enterococcus faecalis ATCC 29212, ~10^7 log phase bacteria, 3 h in potassium-phosphate buffer (PPB) pH 7.4, peptide 25 to 0.125 μM 2-fold series, 5 μl on LB agar, overnight 37 °C) |
| --- | --- | --- | --- | --- | --- | --- | --- | --- | --- | --- | --- | --- |
| CC[C@H](C)[C@H](NC(=O)[C@H](CCCCN)NC(=O)[C@H](Cc1ccccc1)NC(=O)[C@H](CC(C)C)NC(=O)[C@@H]1CCCN1C(=O)[C@H](CCCCN)NC(=O)[C@H](CCCCN)NC(=O)[C@H](CO)NC(=O)[C@@H](N)CCCCN)C(=O)NC(Cc1c[nH]c2ncccc12)C(=O)N[C@@H](CCCCN)C(=O)N[C@@H](CO)C(=O)N[C@H](C(=O)N[C@@H](CCC(=O)O)C(=O)N[C@@H](CC(N)=O)C(=O)N[C@H](C(=O)N[C@@H](CO)C(=O)N[C@H](C(=O)N[C@@H](CC(C)C)C(=O)N[C@@H](Cc1c[nH]c2ccccc12)C(=O)N[C@@H](Cc1ccc(O)cc1)C(=O)N[C@@H](CCCCN)C(N)=O)C(C)C)C(C)C)C(C)C (stereo partly drawn) [NCR169C17–38C12,17/S-10W^7-Aza I] (H-KSKKPLFKI[ξTrp(7-aza)]KSVENVSVLWYK-NH2; N-terminus assumed) | 6.3 µM (≈ 17.1 µg/mL) | 3.1 µM (≈ 8.4 µg/mL) | 3.1 µM (≈ 8.4 µg/mL) | 6.3 µM (≈ 17.1 µg/mL) | 3.1 µM (≈ 8.4 µg/mL) | 3.1 µM (≈ 8.4 µg/mL) | 3.1 µM | 3.1 µM (≈ 8.4 µg/mL) | 3.1 µM (≈ 8.4 µg/mL) |  |  |  |
| CC[C@H](C)[C@H](NC(=O)[C@H](CCCCN)NC(=O)[C@H](Cc1ccccc1)NC(=O)[C@H](CC(C)C)NC(=O)[C@@H]1CCCN1C(=O)[C@H](CCCCN)NC(=O)[C@H](CCCCN)NC(=O)[C@H](CO)NC(=O)[C@@H](N)CCCCN)C(=O)N[C@H](Cc1c[nH]c2ccc(F)cc12)C(=O)N[C@@H](CCCCN)C(=O)N[C@@H](CO)C(=O)N[C@H](C(=O)N[C@@H](CCC(=O)O)C(=O)N[C@@H](CC(N)=O)C(=O)N[C@H](C(=O)N[C@@H](CO)C(=O)N[C@H](C(=O)N[C@@H](CC(C)C)C(=O)N[C@@H](Cc1c[nH]c2ccccc12)C(=O)N[C@@H](Cc1ccc(O)cc1)C(=O)N[C@@H](CCCCN)C(N)=O)C(C)C)C(C)C)C(C)C [NCR169C17–38C12,17/S-10W^5-F-D] (H-KSKKPLFKI[dTrp(5-F)]KSVENVSVLWYK-NH2; N-terminus assumed) | 3.1 µM (≈ 8.45 µg/mL) | 6.3 µM (≈ 17.2 µg/mL) | 1.6 µM (≈ 4.36 µg/mL) | 1.6 µM (≈ 4.36 µg/mL) | 3.1 µM (≈ 8.45 µg/mL) | 3.1 µM (≈ 8.45 µg/mL) |  | 1.6 µM (≈ 4.36 µg/mL) | 3.1 µM (≈ 8.45 µg/mL) | 1.6—6.3 µM |  |  |
| CC[C@H](C)[C@H](NC(=O)[C@H](CCCCN)NC(=O)[C@H](Cc1ccccc1)NC(=O)[C@H](CC(C)C)NC(=O)[C@@H]1CCCN1C(=O)[C@H](CCCCN)NC(=O)[C@H](CCCCN)NC(=O)[C@H](CO)NC(=O)[C@@H](N)CCCCN)C(=O)N[C@@H](Cc1c[nH]c2ccccc12)C(=O)N[C@@H](CCCCN)C(=O)N[C@@H](CO)C(=O)N[C@H](C(=O)N[C@@H](CCC(=O)O)C(=O)N[C@@H](CC(N)=O)C(=O)N[C@H](C(=O)N[C@@H](CO)C(=O)N[C@H](C(=O)N[C@@H](CC(C)C)C(=O)NC(Cc1c[nH]c2ncccc12)C(=O)N[C@@H](Cc1ccc(O)cc1)C(=O)N[C@@H](CCCCN)C(N)=O)C(C)C)C(C)C)C(C)C (stereo partly drawn) [NCR169C17–38C12,17/S-20W^7-Aza I] (H-KSKKPLFKIWKSVENVSVL[ξTrp(7-aza)]YK-NH2; N-terminus assumed) | 6.3 µM (≈ 17.1 µg/mL) |  | 6.3 µM (≈ 17.1 µg/mL) |  | 6.3 µM (≈ 17.1 µg/mL) | 6.3 µM (≈ 17.1 µg/mL) | 6.3 µM | 3.1 µM (≈ 8.4 µg/mL) | 6.3 µM (≈ 17.1 µg/mL) |  | 25 µM (≈ 67.7 µg/mL) | 25 µM (≈ 67.7 µg/mL) |
